According to the supplement of paper PMC10307832:

Assays:
Experiment in all cases: relative viability (nuclei count vs DMSO), 5 days (fraction); higher = more cells survive
AT-7519 + Vorinostat = compound: O=C(NC1CCNCC1)c1n[nH]cc1NC(=O)c1c(Cl)cccc1Cl [AT-7519] + O=C(CCCCCCC(=O)Nc1ccccc1)NO [Vorinostat] (partner 1 µM)
In short: (§1)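 Relative viability equals treated-well nuclei counts divided by vehicle-well nuclei counts. Counts came from 4× images of lung cancer cell lines grown in 1536-well plates for 5 days after pin-tool dosing on the day after seeding. Dosing used one drug alone or a fixed anchor-drug dose plus five library-drug doses (not always all listed) in √10 steps, and values are medians of duplicate plates.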

[1] = compound: C1=CC2=C(C=C(C(=C2N=C1)O)N=NC3=CC4=C(C=C3)C=C(C=C4)S(=O)(=O)O)S(=O)(=O)O + N=C(N)NC(=N)NCCc1ccccc1 [Phenformin] (partner 250 µM)
In short: as §1

AT-7519 + Lapatinib = compound: O=C(NC1CCNCC1)c1n[nH]cc1NC(=O)c1c(Cl)cccc1Cl [AT-7519] + CS(=O)(=O)CCNCc1ccc(-c2ccc3ncnc(Nc4ccc(OCc5cccc(F)c5)c(Cl)c4)c3c2)o1 [Lapatinib] (partner 2 µM)
In short: as §1

[2] = compound: C1=CC2=C(C=C(C(=C2N=C1)O)N=NC3=CC4=C(C=C3)C=C(C=C4)S(=O)(=O)O)S(=O)(=O)O + O=C(CCCCCCC(=O)Nc1ccccc1)NO [Vorinostat] (partner 1 µM)
In short: as §1

Row | Cell Line | relative viability (AT-7519 + Vorinostat; first compound 0.01 µM) | relative viability (AT-7519 + Vorinostat; first compound 0.03162 µM) | relative viability (AT-7519 + Vorinostat; first compound 0.3162 µM) | relative viability (AT-7519 + Vorinostat; first compound 1 µM) | relative viability ([1]; first compound 0.08 µM) | relative viability ([1]; first compound 0.253 µM) | relative viability ([1]; first compound 0.8 µM) | relative viability ([1]; first compound 2.53 µM) | relative viability ([1]; first compound 8 µM) | relative viability (AT-7519 + Lapatinib; first compound 0.01 µM) | relative viability (AT-7519 + Lapatinib; first compound 0.03162 µM) | relative viability (AT-7519 + Lapatinib; first compound 0.3162 µM) | relative viability (AT-7519 + Lapatinib; first compound 1 µM) | relative viability ([2]; first compound 0.08 µM) | relative viability ([2]; first compound 0.253 µM) | relative viability ([2]; first compound 0.8 µM) | relative viability ([2]; first compound 2.53 µM) | relative viability ([2]; first compound 8 µM)
1 | RERF-LC-KJ | 0.776 | 0.666 | 0.631 | 0.459 | 0.439 | 0.39 | 0.435 | 0.439 | 0.43 | 0.847 | 0.922 | 0.86 | 0.851 | 0.809 | 0.811 | 0.662 | 0.695 | 0.603
2 | LXF-289 | 0.815 | 0.884 | 0.771 | 0.773 | 0.54 | 0.511 | 0.509 | 0.485 | 0.507 | 0.929 | 0.902 | 0.953 | 0.912 | 0.75 | 0.719 | 0.817 | 0.704 | 0.766
3 | PC-14 | 0.838 | 0.668 | 0.621 | 0.388 | 0.511 | 0.486 | 0.523 | 0.642 | 0.485 | 0.269 | 0.302 | 0.313 | 0.296 | 0.815 | 0.83 | 0.816 | 0.745 | 0.752
4 | NCI-H650 | 0.504 | 0.459 | 0.46 | 0.599 | 0.413 | 0.42 | 0.437 | 0.49 | 0.309 | 0.923 | 0.841 | 0.781 | 0.75 | 0.435 | 0.472 | 0.416 | 0.413 | 0.175
5 | NCI-H1666 | 0.998 | 0.931 | 1.03 | 0.959 | 0.536 | 0.579 | 0.586 | 0.596 | 0.566 | 0.657 | 0.579 | 0.327 | 0.347 | 1.05 | 0.98 | 1.03 | 1.07 | 0.985
6 | NCI-H2085 | 0.783 | 0.78 | 0.74 | 0.929 | 0.795 | 0.743 | 0.687 | 0.752 | 0.755 | 0.845 | 0.776 | 0.713 | 0.488 | 0.85 | 0.775 | 0.717 | 0.775 | 0.702
7 | NCI-H1734 | 0.723 | 0.831 | 0.739 | 0.535 | 0.398 | 0.381 | 0.356 | 0.326 | 0.35 | 0.893 | 1.03 | 0.928 | 0.427 | 0.788 | 0.852 | 0.757 | 0.718 | 0.859
8 | NCI-H2126 | 0.79 | 0.731 | 0.646 | 0.668 | 0.564 | 0.535 | 0.514 | 0.557 | 0.559 | 0.804 | 0.752 | 0.683 | 0.857 | 0.899 | 0.75 | 0.737 | 0.809 | 0.851
9 | EMC-BAC-2 | 0.424 | 0.422 | 0.531 | 0.878 | 0.587 | 0.561 | 0.514 | 0.526 | 0.427 | 0.866 | 0.85 | 0.889 | 0.886 | 0.377 | 0.458 | 0.467 | 0.441 | 0.45
10 | NCI-H1993 | 0.629 | 0.605 | 0.82 | 0.539 | 0.492 | 0.488 | 0.537 | 0.528 | 0.527 | 0.808 | 0.787 | 0.632 | 0.699 | 0.844 | 0.866 | 0.798 | 0.783 | 0.788
11 | NCI-H520 | 0.712 | 0.793 | 0.659 | 0.429 | 0.493 | 0.496 | 0.585 | 0.321 | 0.727 | 0.922 | 0.638 | 0.587 | 0.283 | 0.66 | 0.662 | 0.761 | 0.681 | 0.753
12 | NCI-H647 | 0.568 | 0.369 | 0.562 | 0.244 | 0.668 | 0.486 | 0.449 | 0.534 | 0.525 | 1.02 | 1 | 0.937 | 0.291 | 0.646 | 0.607 | 0.563 | 0.639 | 0.437
13 | SK-LU-1 | 0.805 | 0.725 | 0.693 | 0.544 | 0.597 | 0.493 | 0.558 | 0.572 | 0.624 | 0.726 | 0.943 | 0.766 | 0.506 | 0.766 | 0.725 | 0.753 | 0.719 | 0.697
14 | NCI-H1650 | 0.534 | 0.681 | 0.489 | 0.23 | 0.427 | 0.444 | 0.42 | 0.418 | 0.322 | 0.781 | 0.782 | 0.555 | 0.21 | 0.577 | 0.447 | 0.594 | 0.633 | 0.373
15 | NCI-H2009 | 0.782 | 0.725 | 0.81 | 0.746 | 0.498 | 0.455 | 0.504 | 0.498 | 0.441 | 1.09 | 0.825 | 0.66 | 0.277 | 0.691 | 0.742 | 0.759 | 0.748 | 0.53
16 | LOU-NH91 | 0.932 | 1 | 0.897 | 0.82 | 0.644 | 0.74 | 0.706 | 0.712 | 0.607 | 0.786 | 0.736 | 0.795 | 0.673 | 1 | 0.89 | 0.903 | 0.865 | 0.639
